US20230265151A1, “GIP/GLP1 CO-AGONIST COMPOUNDS” (priority 2020, published 2023)
Like-named read-outs stand apart in the source and are kept apart here.

Columns and labels:
[1] = target: T1, human Gcg receptor (hGcgR) (Homo sapiens, UniProt P47871); test: [125I]-Glucagon binding, SPA with membranes of HEK293 cells expressing hGcgR; settings: human GcgR; geometric mean (SEM, n); read-out: Binding Affinity Ki, nM (SEM, n) hGCGR
T1 construct: expressed in transfected cells; crude membranes
Description: Two methods are used for the preparation of crude cell membranes.
Method 1: Frozen cell pellets are lysed on ice in hypotonic buffer containing 50 mM Tris HCl, pH 7.5, and Roche Complete™ Protease Inhibitors with EDTA. […] The homogenate is centrifuged at 4° C. at 1100 × g for 10 minutes. The supernatant is collected and stored on ice while the pellets are resuspended in homogenization buffer and rehomogenized as described above. The homogenate is centrifuged at 1100 × g for 10 minutes. The second supernatant is combined with the first supernatant and centrifuged at 35000 × g for 1 hour at 4° C. The resulting membrane pellet is resuspended in homogenization buffer containing protease inhibitors at approximately 1 to 3 mg/mL, quick frozen in liquid nitrogen and stored as aliquots in a -80° C. freezer until use.
The homogenate is centrifuged at 4° C. at 1800 × g for 15 minutes. The supernatant is collected and stored on ice while the pellets are resuspended in homogenization buffer (without DNAse I) and rehomogenized as described above. The homogenate is centrifuged at 1800 × g for 15 minutes. The second supernatant is combined with the first supernatant and centrifuged an additional time at 1800 × g for 15 minutes. The overall supernatant is then centrifuged at 25000 × g for 30 minutes at 4° C. The resulting membrane pellet is resuspended in homogenization buffer (without DNAse I) containing protease inhibitors at approximately 1 to 3 mg/mL and stored as aliquots in a -80° C. freezer until use.
The human Gcg receptor binding assays are performed using a Scintillation Proximity Assay (SPA) format with wheat germ agglutinin (WGA) beads (Perkin Elmer). The binding buffer contains 25 mM 4-(2-hydroxyethyl)-1-piperazineethanesulfonic acid (HEPES), pH 7.4, 2.5 mM CaCl2, 1 mM MgCh, 0.1% (w/v) bacitracin (Research Products), 0.003% (w/v) Polyoxyethylenesorbitan monolaurate (TWEEN®-20), and Roche Complete™ Protease Inhibitors without EDTA. […] Next, 5 µL serially diluted compound or DMSO is transferred into Corning® 3632 clear bottom assay plates containing 45 µL assay binding buffer or unlabeled Gcg control (non-specific binding or NSB, at 1 µM final). […] Plates are sealed and mixed on a plate shaker (setting 6) for 1 minute and read with a PerkinElmer Trilux MicroBeta® scintillation counter after 12 hours of incubation/settling time at room temperature.
Raw CPM data for concentration curves of peptides, Gcg, GLP-1, or GIP are converted to percent inhibition by subtracting nonspecific binding (binding in the presence of excess unlabeled Gcg, GLP-1, or GIP, respectively) from the individual CPM values and dividing by the total binding signal, also corrected by subtracting nonspecific binding. Data are analyzed using four-parameter (curve maximum, curve minimum, IC50, Hill slope) nonlinear regression routines (Genedata Screener, version 12.0.4, Genedata AG, Basal, Switzerland). […] Values for Ki are reported as the geometric mean, with error expressed as the standard error of the mean (SEM) and n is equal to the number of independent replicates (determined in assays performed on different days). Geometric Means are calculated as follows: […]
The Ki Ratio (Ki for native control peptide/Ki for test compound) at each receptor and each species is calculated. The Ki Ratio is a rapid indication of the apparent affinity of a peptide compared to the native control peptide.
n=⅟x means that only one value out of the total number of replicates (x) is used to express the mean. SEM is only calculated when n=2 or greater non-qualified results exist. Means are expressed as GeoMetric means with the standard error of the mean (SEM) and the number of replicates (n) indicated in parenthesis.

hGLP-1R = hGLP-1R (Homo sapiens, UniProt P43220); test: Functional cAMP formation (HTRF) in HEK-293 clonal cells expressing hGLP-1R, 0.1% bovine casein, without or with 1.0% human serum albumin; type: cell-based; set-up: expressed in transfected cells; settings: 0.1% bovine casein and 1.0% human serum albumin, 37° C.; geometric mean; read-out: hGLP-1R EC50, nM (SEM, n)
Summary of the method: (§1)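 Cells were stimulated with peptide for 30 min at 37° C, then intracellular cAMP was measured by competitive HTRF (665/620 nm ratio) and converted to nM using a cAMP standard curve. Relative EC50 and Emax came from four-parameter logistic fits of percent maximal response against peptide concentration.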

hGCGR = target: T2, hGCGR (Homo sapiens, UniProt P47871); test: Functional cAMP formation (HTRF) in HEK-293 clonal cells expressing hGCGR, 0.1% bovine casein, without or with 1.0% human serum albumin; type: cell-based; settings: geometric mean, read-out: hGCGR EC50, nM (SEM, n)
T2 construct: expressed in transfected cells
Summary of the method: as §1

hGIPR = target: T3, hGIPR (Homo sapiens, UniProt P48546); test: Functional cAMP formation (HTRF) in HEK-293 clonal cells expressing hGIPR, 0.1% bovine casein, without or with 1.0% human serum albumin; type: cell-based; settings: for EC50: geometric mean, read-out: hGIPR EC50, nM (SEM, n); for Emax: read-out: hGIPR Emax, % ± SEM
T3 construct: expressed in transfected cells
T3 sequence (P48546 22-466): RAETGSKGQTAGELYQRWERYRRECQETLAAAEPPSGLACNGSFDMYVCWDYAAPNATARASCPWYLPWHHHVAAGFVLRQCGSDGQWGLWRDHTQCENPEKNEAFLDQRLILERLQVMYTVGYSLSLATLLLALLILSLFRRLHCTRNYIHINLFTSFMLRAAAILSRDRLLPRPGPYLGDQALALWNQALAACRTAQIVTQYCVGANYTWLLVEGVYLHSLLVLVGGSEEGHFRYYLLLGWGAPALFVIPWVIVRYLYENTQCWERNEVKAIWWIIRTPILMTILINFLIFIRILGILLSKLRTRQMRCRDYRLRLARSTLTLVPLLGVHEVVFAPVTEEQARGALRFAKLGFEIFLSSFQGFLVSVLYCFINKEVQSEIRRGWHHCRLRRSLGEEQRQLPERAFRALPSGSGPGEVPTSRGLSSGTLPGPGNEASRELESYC
Summary of the method: as §1

[2] = 0.1% bovine casein and 1.0% human serum albumin, 37° C.
[3] = cAMP, incubated at 37° C., 0.1% bovine casein (no human serum albumin)
[4] = HEK293, 0.1% bovine casein and 1.0% human serum albumin, 37° C., percent of maximal response to GIP(1-42)NH2

T2 sequence (P47871 26-477): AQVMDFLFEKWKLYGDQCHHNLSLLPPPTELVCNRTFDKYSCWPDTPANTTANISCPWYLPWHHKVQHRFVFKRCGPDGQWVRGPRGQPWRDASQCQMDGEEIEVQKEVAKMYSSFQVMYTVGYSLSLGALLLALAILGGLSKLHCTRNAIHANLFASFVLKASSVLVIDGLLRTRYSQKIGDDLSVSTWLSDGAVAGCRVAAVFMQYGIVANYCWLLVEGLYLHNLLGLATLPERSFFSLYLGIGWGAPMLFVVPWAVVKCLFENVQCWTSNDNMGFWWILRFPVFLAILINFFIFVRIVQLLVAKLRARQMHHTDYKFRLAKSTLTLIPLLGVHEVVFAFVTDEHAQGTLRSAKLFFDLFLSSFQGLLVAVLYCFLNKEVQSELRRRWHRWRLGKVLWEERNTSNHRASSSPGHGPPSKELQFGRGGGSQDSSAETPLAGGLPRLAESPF
T1 sequence (P47871 26-477): as above
Chain of hGLP-1R (P43220 24-463): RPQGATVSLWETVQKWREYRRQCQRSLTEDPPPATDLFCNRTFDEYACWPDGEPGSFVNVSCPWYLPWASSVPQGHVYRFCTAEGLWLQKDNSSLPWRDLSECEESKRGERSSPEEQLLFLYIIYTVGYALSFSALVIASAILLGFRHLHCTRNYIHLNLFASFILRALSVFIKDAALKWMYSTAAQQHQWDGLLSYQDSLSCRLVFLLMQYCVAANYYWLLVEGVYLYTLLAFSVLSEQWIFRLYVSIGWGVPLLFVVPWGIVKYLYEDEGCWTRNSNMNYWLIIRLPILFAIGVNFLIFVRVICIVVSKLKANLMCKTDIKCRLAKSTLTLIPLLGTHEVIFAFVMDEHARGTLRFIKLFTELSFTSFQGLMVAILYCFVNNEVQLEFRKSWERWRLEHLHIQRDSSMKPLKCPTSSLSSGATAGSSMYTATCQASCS

| SMILES | Ki [1] | EC50 (hGLP-1R) | EC50 (hGCGR; [2]) | EC50 (hGCGR; [3]) | EC50 (hGIPR; [2]) | Emax (hGIPR; [4]) | Emax (hGIPR; HEK293, percent of maximal response to GIP(1-42)NH2, 37° C., 0.1% bovine casein, arithmetic mean) | EC50 (hGIPR; [3]) |
| --- | --- | --- | --- | --- | --- | --- | --- | --- |
| CC[C@H](C)[C@H](NC(=O)[C@H](CC(C)C)NC(=O)[C@](C)(Cc1ccc(O)cc1)NC(=O)[C@@H](CCC(=O)O)NC(=O)[C@@H](NC(=O)[C@H](Cc1ccccc1)NC(=O)[C@H](CCC(=O)O)NC(=O)C(C)(C)NC(=O)[C@H](CCC(N)=O)NC(=O)[C@H](C)NC(=O)[C@H](CCCCNC(=O)COCCOCCNC(=O)COCCOCCNC(=O)CC[C@H](NC(=O)CCCCCCCCCCC(=O)O)C(=O)O)NC(=O)[C@H](CCCN)NC(=O)[C@H](CC(=O)O)NC(=O)[C@H](CC(C)C)NC(=O)[C@](C)(CC(C)C)NC(=O)[C@@H](NC(=O)[C@H](CO)NC(=O)[C@H](Cc1ccncc1)NC(=O)[C@H](CC(=O)O)NC(=O)[C@H](CO)NC(=O)[C@@H](NC(=O)[C@](C)(Cc1ccccc1F)NC(=O)[C@@H](NC(=O)CNC(=O)[C@H](CCC(=O)O)NC(=O)C(C)(C)NC(=O)[C@@H](N)Cc1ccc(O)cc1)[C@@H](C)O)[C@@H](C)O)[C@@H](C)CC)[C@@H](C)CC)C(=O)N[C@@H](CCC(=O)O)C(=O)NCC(=O)NCC(=O)N[C@@H](CCCCNC(=O)COCCOCCNC(=O)COCCOCCNC(=O)CC[C@H](NC(=O)CCCCCCCCCCC(=O)O)C(=O)O)C(=O)N[C@@H](CO)C(=O)N[C@@H](CO)C(=O)NCC(=O)N[C@@H](C)C(=O)N1CCC[C@H]1C(=O)N1CCC[C@H]1C(=O)N1CCC[C@H]1C(=O)N[C@@H](CO)C(N)=O [Example 6] | > 969 nM | 4.19 nM | > 9950 nM | > 9950 nM | 0.0823 nM | 89.4 ± 1.74% | – | – |
| CC[C@H](C)[C@H](NC(=O)[C@H](CC(C)C)NC(=O)[C@](C)(Cc1ccc(O)cc1)NC(=O)[C@@H](CCC(=O)O)NC(=O)[C@@H](NC(=O)[C@H](Cc1ccccc1)NC(=O)[C@H](CCC(=O)O)NC(=O)C(C)(C)NC(=O)[C@H](CCC(N)=O)NC(=O)[C@H](C)NC(=O)[C@H](CCCCNC(=O)COCCOCCNC(=O)COCCOCCNC(=O)CC[C@H](NC(=O)CCCCCCCCCCCCC(=O)O)C(=O)O)NC(=O)[C@H](CCCN)NC(=O)[C@H](CC(=O)O)NC(=O)[C@H](CC(C)C)NC(=O)[C@](C)(CC(C)C)NC(=O)[C@@H](NC(=O)[C@H](CO)NC(=O)[C@H](Cc1ccncc1)NC(=O)[C@H](CC(=O)O)NC(=O)[C@H](CO)NC(=O)[C@@H](NC(=O)[C@](C)(Cc1ccccc1F)NC(=O)[C@@H](NC(=O)CNC(=O)[C@H](CCC(=O)O)NC(=O)C(C)(C)NC(=O)[C@@H](N)Cc1ccc(O)cc1)[C@@H](C)O)[C@@H](C)O)[C@@H](C)CC)[C@@H](C)CC)C(=O)N[C@@H](CCCCNC(=O)COCCOCCNC(=O)COCCOCCNC(=O)CC[C@H](NC(=O)CCCCCCCCCCCCC(=O)O)C(=O)O)C(=O)NCC(=O)NCC(=O)N1CCC[C@H]1C(=O)N[C@@H](CO)C(=O)N[C@@H](CO)C(=O)NCC(=O)N[C@@H](C)C(=O)N1CCC[C@H]1C(=O)N1CCC[C@H]1C(=O)N1CCC[C@H]1C(=O)N[C@@H](CO)C(N)=O [Example 17] | > 966 nM | 48.9 nM | > 9950 nM | > 9950 nM | 0.605 nM | 88.9 ± 2.36% | 97.5 ± 5.04% | 0.0129 nM |
